# Results from ChEMBL document CHEMBL5126517, “Structure-Activity Relationship in the Leucettine Family of Kinase Inhibitors” (J Med Chem, 2022).
# What was measured:
# [1] = biological target: Glycogen synthase kinase-3 (Sus scrofa, UniProt B2LUN4+I6LNT8); test: Inhibition of porcine brain GSK-3alpha/beta using YRRAAVPPSPSLSRHSSPHQpSEDEEE as substrate incubated for 30 mins in presence of ATP by scintillation counting method; assay type: tissue-based
# [2] = biological target: Dual specificity protein kinase CLK4 (Mus musculus, UniProt O35493); test: Inhibition of GST-fused mouse recombinant CLK4 expressed in Escherichia coli using GRSRSRSRSRSR peptide as substrate incubated for 30 mins in presence of ATP by scintillation counting method
# [3] = biological target: Dual specificity protein kinase CLK3 (Mus musculus, UniProt O35492); test: Inhibition of GST-fused mouse recombinant CLK3 expressed in Escherichia coli using GRSRSRSRSRSR peptide as substrate incubated for 30 mins in presence of ATP by scintillation counting method
# [4] = biological target: Dual specificity protein kinase CLK1 (Mus musculus, UniProt P22518); test: Inhibition of GST-fused mouse recombinant CLK1 expressed in Escherichia coli using GRSRSRSRSRSR peptide as substrate incubated for 30 mins in presence of ATP by scintillation counting method
# [5] = biological target: Dual specificity protein kinase CLK2 (Mus musculus, UniProt O35491); test: Inhibition of mouse recombinant GST-fused CLK2 expressed in Escherichia coli using GRSRSRSRSRSR peptide as substrate incubated for 30 mins in presence of ATP by scintillation counting method
# [6] = biological target: Dual specificity tyrosine-phosphorylation-regulated kinase 1A (Homo sapiens, UniProt Q13627); test: Inhibition of GST-fused human recombinant DYRK1A expressed in Escherichia coli using GRSRSRSRSRSR peptide as substrate incubated for 30 mins in presence of ATP by scintillation counting method
# [7] = biological target: Dual specificity tyrosine-phosphorylation-regulated kinase 1B (Homo sapiens, UniProt Q9Y463)
# [8] = biological target: T1, Dual specificity tyrosine-phosphorylation-regulated kinase 2 (Homo sapiens, UniProt Q92630); test: Inhibition of GST-fused human recombinant DYRK2 expressed in Escherichia coli using GRSRSRSRSRSR peptide as substrate incubated for 30 mins in presence of ATP by scintillation counting method
# T1 sequence (Q92630 whole entry): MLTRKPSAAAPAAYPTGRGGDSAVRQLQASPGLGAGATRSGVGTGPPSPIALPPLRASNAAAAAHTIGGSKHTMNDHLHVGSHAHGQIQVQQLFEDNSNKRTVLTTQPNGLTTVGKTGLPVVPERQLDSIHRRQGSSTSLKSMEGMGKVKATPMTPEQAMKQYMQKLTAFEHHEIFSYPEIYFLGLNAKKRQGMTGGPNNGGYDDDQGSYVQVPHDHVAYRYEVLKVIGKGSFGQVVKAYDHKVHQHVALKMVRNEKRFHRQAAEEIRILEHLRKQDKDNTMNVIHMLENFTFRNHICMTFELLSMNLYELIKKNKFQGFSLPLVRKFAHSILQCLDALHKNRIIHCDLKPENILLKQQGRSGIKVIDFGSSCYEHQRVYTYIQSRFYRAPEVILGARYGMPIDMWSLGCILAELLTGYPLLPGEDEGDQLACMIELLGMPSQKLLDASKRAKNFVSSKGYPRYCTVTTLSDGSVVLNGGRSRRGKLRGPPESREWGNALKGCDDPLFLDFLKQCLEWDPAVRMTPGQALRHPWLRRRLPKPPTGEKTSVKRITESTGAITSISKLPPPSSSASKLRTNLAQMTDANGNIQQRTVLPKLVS
# [9] = biological target: T2, Dual specificity tyrosine-phosphorylation-regulated kinase 3 (Homo sapiens, UniProt O43781); test: Inhibition of GST-fused human recombinant DYRK3 expressed in Escherichia coli using GRSRSRSRSRSR peptide as substrate incubated for 30 mins in presence of ATP by scintillation counting method
# T2 sequence (O43781 whole entry): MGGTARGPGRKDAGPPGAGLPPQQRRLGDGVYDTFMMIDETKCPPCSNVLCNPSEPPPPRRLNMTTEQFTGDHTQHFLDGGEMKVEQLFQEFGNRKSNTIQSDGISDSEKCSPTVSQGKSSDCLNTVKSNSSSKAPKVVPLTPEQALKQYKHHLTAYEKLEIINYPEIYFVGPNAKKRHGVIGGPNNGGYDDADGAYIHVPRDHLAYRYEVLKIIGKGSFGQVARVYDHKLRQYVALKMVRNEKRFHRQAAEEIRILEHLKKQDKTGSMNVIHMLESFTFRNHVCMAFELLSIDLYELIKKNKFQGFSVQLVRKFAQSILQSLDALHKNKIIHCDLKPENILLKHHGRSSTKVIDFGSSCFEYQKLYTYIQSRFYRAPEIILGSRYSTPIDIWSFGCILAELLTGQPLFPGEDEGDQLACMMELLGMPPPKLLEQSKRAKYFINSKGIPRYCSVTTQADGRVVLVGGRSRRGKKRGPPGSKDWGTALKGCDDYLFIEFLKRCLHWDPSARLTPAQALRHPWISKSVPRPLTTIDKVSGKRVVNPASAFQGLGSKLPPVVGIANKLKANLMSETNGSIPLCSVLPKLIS
# [10] = biological target: Serine/threonine-protein kinase pim-1 (Homo sapiens, UniProt P11309); test: Inhibition of human recombinant Pim1 expressed in Escherichia coli using histone H1 as substrate incubated for 30 mins in presence of ATP by scintillation counting method
# [11] = biological target: Casein kinase 2 (Homo sapiens, UniProt P67870+P68400+P19784+Q8NEV1); test: Inhibition of human recombinant CK2 using RRRDDDSDDD peptide as substrate incubated for 30 mins in presence of ATP by scintillation counting method; assay type: protein assay
# [12] = system: U2OS; test: Induction of PI3K/mTor-dependent autophagy in human U2OS cells assessed as number of LC3 foci per cell at 10 uM measured after 4 hrs; assay type: cell-based; conditions: filed as activator
# [13] = system: HT-22; test: Modulation of CLK1 pre-mRNA splicing in mouse HT-22 cells assessed as inclusion of CLK1 exon 4 by measuring change in threshold cycle at 10 uM measured after 4 hrs by real time PCR analysis; assay type: cell-based; conditions: filed as modulator
# [14] = biological target: Cannabinoid receptor 1 (Homo sapiens, UniProt P21554); test: Antagonist activity at CP-55940-activated CB1 receptor (unknown origin) at 10 uM by beta-arrestin assay relative to control; assay type: functional; design: scale not given: the % may be the effect or the level left
# [15] = Neurotoxicity against mouse HT-22 cells assessed as cell survival at 20 uM treated for 24 hrs by MTS assay; assay type: toxicity, cell-based; conditions: ht-22, 24 h
# [16] = system: HT-22; test: Neuroprotective activity against glutamate-induced cell death in mouse HT-22 cells treated for 24 hrs by MTS assay; assay type: functional, cell-based; conditions: HT-22, 24 h
# Cannabinoid receptor 1, sequence (P21554 whole entry): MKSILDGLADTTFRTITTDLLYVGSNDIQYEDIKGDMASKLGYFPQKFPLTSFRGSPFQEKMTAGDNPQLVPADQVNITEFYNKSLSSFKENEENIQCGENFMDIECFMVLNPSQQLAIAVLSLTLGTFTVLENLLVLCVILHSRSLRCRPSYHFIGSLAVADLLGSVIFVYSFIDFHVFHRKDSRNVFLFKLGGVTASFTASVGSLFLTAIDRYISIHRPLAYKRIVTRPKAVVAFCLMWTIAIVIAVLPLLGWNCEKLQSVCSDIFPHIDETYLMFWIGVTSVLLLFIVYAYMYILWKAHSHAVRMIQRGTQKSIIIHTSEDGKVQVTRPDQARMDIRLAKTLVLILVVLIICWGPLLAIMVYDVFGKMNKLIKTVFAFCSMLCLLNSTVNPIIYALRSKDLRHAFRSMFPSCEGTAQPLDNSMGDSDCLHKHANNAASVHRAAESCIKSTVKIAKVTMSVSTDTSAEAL
# Dual specificity protein kinase CLK1, sequence (P22518 whole entry, the tested form may be a part): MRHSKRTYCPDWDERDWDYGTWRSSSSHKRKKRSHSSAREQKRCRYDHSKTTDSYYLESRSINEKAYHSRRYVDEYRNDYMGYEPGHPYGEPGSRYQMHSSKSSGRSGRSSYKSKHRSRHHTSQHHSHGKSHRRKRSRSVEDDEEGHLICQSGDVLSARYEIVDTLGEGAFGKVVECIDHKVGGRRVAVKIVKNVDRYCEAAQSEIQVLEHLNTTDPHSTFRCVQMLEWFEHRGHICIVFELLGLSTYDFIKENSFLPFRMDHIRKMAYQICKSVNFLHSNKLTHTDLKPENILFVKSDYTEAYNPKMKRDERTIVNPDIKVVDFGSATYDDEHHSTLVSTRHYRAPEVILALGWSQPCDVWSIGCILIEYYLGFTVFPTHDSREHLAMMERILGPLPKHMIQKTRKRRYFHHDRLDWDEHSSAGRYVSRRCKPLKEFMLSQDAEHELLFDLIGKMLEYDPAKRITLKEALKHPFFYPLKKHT
# Dual specificity protein kinase CLK4, sequence (O35493 whole entry, the tested form may be a part): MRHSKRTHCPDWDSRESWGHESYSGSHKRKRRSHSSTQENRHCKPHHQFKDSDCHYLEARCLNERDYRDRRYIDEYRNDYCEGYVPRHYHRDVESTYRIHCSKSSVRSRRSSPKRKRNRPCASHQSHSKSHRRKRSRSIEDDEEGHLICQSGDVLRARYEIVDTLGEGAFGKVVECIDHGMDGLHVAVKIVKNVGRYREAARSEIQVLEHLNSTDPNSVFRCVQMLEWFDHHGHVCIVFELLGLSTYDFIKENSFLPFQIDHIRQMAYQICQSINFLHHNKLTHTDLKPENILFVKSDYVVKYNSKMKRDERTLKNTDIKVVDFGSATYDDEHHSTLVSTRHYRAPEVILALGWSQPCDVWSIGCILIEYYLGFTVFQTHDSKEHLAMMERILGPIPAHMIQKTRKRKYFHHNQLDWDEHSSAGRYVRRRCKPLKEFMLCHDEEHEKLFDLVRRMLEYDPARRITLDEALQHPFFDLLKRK
# Dual specificity protein kinase CLK3, sequence (O35492 whole entry, the tested form may be a part): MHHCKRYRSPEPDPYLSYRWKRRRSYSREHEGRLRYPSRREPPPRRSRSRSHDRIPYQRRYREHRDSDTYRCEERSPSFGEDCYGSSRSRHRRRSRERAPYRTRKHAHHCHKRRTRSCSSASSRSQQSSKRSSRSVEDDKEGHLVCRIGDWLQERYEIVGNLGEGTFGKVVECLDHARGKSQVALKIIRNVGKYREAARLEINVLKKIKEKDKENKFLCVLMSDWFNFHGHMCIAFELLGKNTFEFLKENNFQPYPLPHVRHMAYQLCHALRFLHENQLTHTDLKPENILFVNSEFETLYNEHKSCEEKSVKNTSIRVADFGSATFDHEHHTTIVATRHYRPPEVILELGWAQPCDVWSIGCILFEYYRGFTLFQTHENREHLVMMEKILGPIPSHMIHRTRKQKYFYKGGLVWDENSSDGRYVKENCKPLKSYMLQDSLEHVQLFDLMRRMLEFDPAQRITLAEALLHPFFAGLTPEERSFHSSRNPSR
# Serine/threonine-protein kinase pim-1, sequence (P11309 whole entry): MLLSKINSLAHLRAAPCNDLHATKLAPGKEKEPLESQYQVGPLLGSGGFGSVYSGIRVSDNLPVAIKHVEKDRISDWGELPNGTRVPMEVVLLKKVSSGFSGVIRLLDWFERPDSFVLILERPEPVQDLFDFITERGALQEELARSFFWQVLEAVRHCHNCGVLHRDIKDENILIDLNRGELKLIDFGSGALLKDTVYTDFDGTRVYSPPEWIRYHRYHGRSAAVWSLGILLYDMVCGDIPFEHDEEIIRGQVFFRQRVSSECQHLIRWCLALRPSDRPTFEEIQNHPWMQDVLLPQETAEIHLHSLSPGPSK
# Dual specificity tyrosine-phosphorylation-regulated kinase 1B, sequence (Q9Y463 whole entry, the tested form may be a part): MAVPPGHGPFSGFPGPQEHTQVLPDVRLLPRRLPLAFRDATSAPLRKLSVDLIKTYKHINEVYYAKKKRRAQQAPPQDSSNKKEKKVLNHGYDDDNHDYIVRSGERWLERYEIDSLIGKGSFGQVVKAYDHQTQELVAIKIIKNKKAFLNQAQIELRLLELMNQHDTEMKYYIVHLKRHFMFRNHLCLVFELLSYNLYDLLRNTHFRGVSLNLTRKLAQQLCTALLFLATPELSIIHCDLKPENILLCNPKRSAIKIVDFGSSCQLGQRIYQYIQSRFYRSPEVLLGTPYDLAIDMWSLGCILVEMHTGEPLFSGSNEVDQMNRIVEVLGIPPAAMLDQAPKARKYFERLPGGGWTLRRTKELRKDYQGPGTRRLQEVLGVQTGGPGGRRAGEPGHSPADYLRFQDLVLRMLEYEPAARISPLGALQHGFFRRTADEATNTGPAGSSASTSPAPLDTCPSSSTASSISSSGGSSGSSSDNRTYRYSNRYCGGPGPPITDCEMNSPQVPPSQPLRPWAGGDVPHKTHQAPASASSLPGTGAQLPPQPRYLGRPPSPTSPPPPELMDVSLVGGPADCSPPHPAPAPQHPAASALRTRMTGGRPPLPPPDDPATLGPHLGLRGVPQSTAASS
# Dual specificity protein kinase CLK2, sequence (O35491 whole entry, the tested form may be a part): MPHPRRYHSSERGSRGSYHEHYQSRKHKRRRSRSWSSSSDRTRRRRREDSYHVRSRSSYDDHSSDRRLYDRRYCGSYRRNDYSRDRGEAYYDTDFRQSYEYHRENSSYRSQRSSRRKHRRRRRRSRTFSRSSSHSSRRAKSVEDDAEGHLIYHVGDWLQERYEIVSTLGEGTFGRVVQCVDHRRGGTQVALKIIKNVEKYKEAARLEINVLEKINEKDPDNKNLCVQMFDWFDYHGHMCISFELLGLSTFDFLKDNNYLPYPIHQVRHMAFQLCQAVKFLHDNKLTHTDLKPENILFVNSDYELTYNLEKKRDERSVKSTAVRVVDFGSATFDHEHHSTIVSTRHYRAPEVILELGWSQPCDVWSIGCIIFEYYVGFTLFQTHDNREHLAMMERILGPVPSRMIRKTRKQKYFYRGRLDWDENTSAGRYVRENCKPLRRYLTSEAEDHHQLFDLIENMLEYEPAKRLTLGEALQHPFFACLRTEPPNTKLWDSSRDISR
Structure (SMILES),IC50 [1],IC50 [2],IC50 [3],IC50 [4],IC50 [5],IC50 [6],IC50 [7],IC50 [8],IC50 [9],IC50 [10],IC50 [11],Activity [12],deltaCT [13],Activity [14],Activity [15],Activity ([14]; filed as antagonist),EC50 [16]
CSC1=N/C(=C\c2ccc3c(c2)OCO3)C(=O)N1,1800 nM,80 nM,2400 nM,73 nM,250 nM,110 nM,330 nM,80 nM,410 nM,1200 nM,2200 nM,5.9,0.13,-23%,Non-Toxic,,
CCSC1NC(=O)/C(=C/c2ccc3c(c2)OCO3)N1C (stereo not drawn),,,,,,,,,,,,6.5,0.23,-10.7%,Non-Toxic,,
O=C1NC(N2CCCCC2)=N/C1=C\c1ccc2c(c1)OCO2,2600 nM,250 nM,4500 nM,240 nM,1300 nM,130 nM,440 nM,220 nM,530 nM,880 nM,760 nM,6.8,0.68,-58.4%,Non-Toxic,,
O=C1NC(N2CCC(N3CCCCC3)CC2)=N/C1=C\c1ccc2c(c1)OCO2,6200 nM,1400 nM,> 10000 nM,920 nM,3200 nM,1100 nM,4400 nM,1400 nM,5200 nM,7600 nM,> 10000 nM,7.1,0.42,-51.1%,Non-Toxic,,
COc1ccc(NC2=N/C(=C\c3ccc4c(c3)OCO4)C(=O)N2)cc1,> 10000 nM,130 nM,> 10000 nM,140 nM,7500 nM,110 nM,270 nM,130 nM,6000 nM,,> 10000 nM,5.9,0.5,,Non-Toxic,50.5%,
O=C1NC(Nc2cccc(F)c2)=N/C1=C\c1ccc2c(c1)OCO2,560 nM,30 nM,560 nM,52 nM,130 nM,19 nM,35 nM,23 nM,350 nM,1200 nM,800 nM,7.5,,,Non-Toxic,83.4%,5000 nM
Cc1ccc(C)c(NC2=N/C(=C\c3ccc4c(c3)OCO4)C(=O)N2)c1,10000 nM,23 nM,3500 nM,50 nM,180 nM,24 nM,92 nM,22 nM,800 nM,7700 nM,1600 nM,26,,10.8%,Non-Toxic,,7000 nM
O=C1NC(Nc2ccc(O)c(F)c2)=N/C1=C\c1ccc2c(c1)OCO2,550 nM,19 nM,400 nM,16 nM,120 nM,12 nM,23 nM,11 nM,170 nM,610 nM,320 nM,18.2,,-5.6%,Non-Toxic,,13000 nM
Cn1cc(Cc2ccc3c(c2)OCO3)nc1N,,3000 nM,> 10000 nM,3200 nM,> 10000 nM,> 10000 nM,,> 10000 nM,> 10000 nM,,,5.3,0.38,8.9%,Non-Toxic,,
O=C1NC(Nc2ccc(N3CCNCC3)cc2)=N/C1=C\c1ccc2c(c1)OCO2,2400 nM,520 nM,9000 nM,420 nM,1800 nM,350 nM,950 nM,410 nM,1200 nM,6100 nM,2300 nM,7.3,,-47.5%,Non-Toxic,,910 nM
O=C1NC(Nc2ccccc2)=N/C1=C\c1ccc2c(c1)OCCO2,2000 nM,140 nM,2400 nM,130 nM,880 nM,76 nM,250 nM,92 nM,420 nM,1000 nM,970 nM,6.6,,,Non-Toxic,96.3%,10000 nM
O=C1NC(Nc2ccc(F)cc2)=N/C1=C\c1ccc2c(c1)OCO2,8800 nM,50 nM,> 10000 nM,62 nM,260 nM,28 nM,100 nM,35 nM,930 nM,9300 nM,8800 nM,4.9,,,Non-Toxic,76.4%,3600 nM
O=C1NC(Nc2ccc(N3CCNCC3)cc2)=N/C1=C\c1ccc2c(c1)OC=CO2,4600 nM,640 nM,> 10000 nM,1100 nM,2300 nM,530 nM,1400 nM,350 nM,1100 nM,5400 nM,3000 nM,7.3,,-20%,Non-Toxic,,1250 nM
O=C1OC(Nc2ccccc2)=N/C1=C\c1ccc2c(c1)OCO2,,,,,,,,,,,,6.2,-0.18,-37.5%,Non-Toxic,,
O=C1NC(Nc2ccccc2)=N/C1=C\c1ccc2c(c1)CCO2,> 10000 nM,19 nM,1200 nM,22 nM,120 nM,32 nM,88 nM,41 nM,240 nM,3200 nM,1100 nM,10.2,,,Non-Toxic,96.4%,7000 nM
